Measured values published in patent publication US20250082614A1, “METHODS OF USING RAD51 INHIBITORS FOR TREATMENT OF PANCREATIC CANCER” (Cyteir Therapeutics, Inc., priority 2019, published 2025).
Read-outs that look alike come from different tables or passages of the source.

Legend:
[1] = Bi-directional Caco-2 permeability; assay type: in vitro ADME; conditions: human; for Papp A→B at 90 min / Papp B→A at 90 min: Caco-2, 37° C., up to 90 minutes; for Papp A→B at 90 min: apical to basolateral, read-out: AB Papp (cm/sec × 10^6); for Papp B→A at 90 min: basolateral to apical, read-out: BA Papp (cm/sec × 10^6); for efflux ratio at 90 min: Caco-2 efflux ratio, read-out: BA/AB Ratio
Experimental: Bi-directional Caco-2 permeability was assayed. Caco-2 cells were seeded onto permeable polycarbonate supports and allowed to differentiate for about 3 weeks prior to being used in the assays. The cells were then exposed to the compounds from either the apical or basolateral sides and incubated at 37° C. for up to 90 minutes under light agitation. Compound transport was then measured using LC/MS/MS analysis at 30, 60, and 90 minutes.

[2] = Human liver microsome stability; assay type: in vitro ADME; conditions: human liver microsomes
Experimental: The stability of the claimed compounds was determined in the presences of human liver microsomes. The compounds were incubated with the microsomes at 37° C. for 45 minutes. Samples were analyzed using LC-MS/MS. Data analysis included half-life, clearance rate, and the percentage of hepatic blood flow […] for each of the compounds in the different species.

[3] = Pharmacokinetic (PK) study, plasma by LC-MS; assay type: in vivo, rat; conditions: po @ 80 mg/kg
Experimental: PK studies in mice were used to determine the fate of the compounds in a whole organism. Rats were treated with the compounds either orally of via IV at the indicated doses and followed for up to 24 hours. Plasma samples were taken at different time points and analyzed by LC-MS.

[4] = Caco-2, apical to basolateral, read-out: AB Recovery %
[5] = Caco-2, basolateral to apical, read-out: BA Recovery %

SMILES	recovery at 90 min [1, 4] [%]	recovery at 90 min [1, 5] [%]	Papp A→B at 90 min [1] [×10⁻⁶ cm/s]	Papp B→A at 90 min [1] [×10⁻⁶ cm/s]	efflux ratio at 90 min [1]	% QH (percentage of hepatic blood flow) [2] [%]	F (%) @ 5 mg/kg ([3]; Rat Female) [%]	F (%) @ 5 mg/kg ([3]; Rat Male) [%]
CC(C)OC(=O)N[C@@H]1CCC(c2ncc(-c3ccc(NC(=O)NCc4ccccc4)cc3S(=O)(=O)NC(C)(C)C)s2)OC1 (mixture of isomers) [Ex. 59, trans-isopropyl N-[6-[5-[4-(benzylcarbamoylamino)-2-(tert-butylsulfamoyl)phenyl]thiazol-2-yl]tetrahydropyran-3-yl]carbamate]	61.5	91.5	3.1	15	4.8	–	–	–
CC(C)OC(=O)Nc1ccc(-c2cnc(C3CC[C@@H](NC(=O)OC(C)C)CO3)s2)c(S(=O)(=O)NC(C)(C)C)c1 (mixture of isomers) [Ex. 60, trans-isopropyl N-[6-[5-[2-(tert-butylsulfamoyl)-4-(isopropoxycarbonylamino)phenyl]thiazol-2-yl]tetrahydropyran-3-yl]carbamate]	59.8	90.8	15.6	13.3	0.9	–	–	–
CC(C)NC(=O)OC1CCC(c2ncc(-c3ccc(NC(=O)NCc4ccccc4)cc3S(=O)(=O)NC(C)(C)C)s2)CC1 (stereo not drawn) [Ex. 21]	–	–	3.6	10.7	3	–	–	–
CC(C)OC(=O)N[C@H]1CC[C@H](c2ncc(-c3ccc(NC(=O)NCc4ccncc4)cc3S(=O)(=O)NC(C)(C)C)s2)CC1 [Ex. 22, trans-isopropyl N-[4-[5-[2-(tert-butylsulfamoyl)-4-(4-pyridylmethylcarbamoylamino)phenyl]thiazol-2-yl]cyclohexyl]carbamate]	83.1	89	1.1	21	18.7	–	–	–
CC(C)OC(=O)NC1CCC(c2ncc(-c3ccc(NC(=O)NCc4cccc(F)c4)cc3S(=O)(=O)NC(C)(C)C)s2)CC1 (stereo not drawn) [Ex. 27, isopropyl ((1r,4r)-4-(5-(2-(N-(tert-butyl)sulfamoyl)-4-(3-(3-fluorobenzyl)ureido)phenyl)thiazol-2-yl)cyclohexyl)carbamate]	–	–	0.7	0.5	0.7	–	–	–
CC(C)OC(=O)NC1CCC(c2ncc(-c3ccc(NC(=O)NCc4ccccc4F)cc3S(=O)(=O)NC(C)(C)C)s2)CC1 (stereo not drawn) [Ex. 28, isopropyl ((1r,4r)-4-(5-(2-(N-(tert-butyl)sulfamoyl)-4-(3-(2-fluorobenzyl)ureido)phenyl)thiazol-2-yl)cyclohexyl)carbamate]	–	–	1.9	3.3	1.7	–	–	–
CC(C)OC(=O)NC1CCC(c2ncc(-c3ccc(NC(=O)NCc4ccccn4)cc3S(=O)(=O)NC(C)(C)C)s2)CC1 (stereo not drawn) [Ex. 29, isopropyl ((1r,4r)-4-(5-(2-(N-(tert-butyl)sulfamoyl)-4-(3-(pyridin-2-ylmethyl)ureido)phenyl)thiazol-2-yl)cyclohexyl)carbamate]	–	–	10.9	24.1	2.2	78.8	8.39	3.69
CC(C)OC(=O)NC1CCC(c2ncc(-c3ccc(NC(=O)N[C@H](C)c4ccccn4)cc3S(=O)(=O)NC(C)(C)C)s2)CC1 (stereo partly drawn) [Ex. 30, isopropyl ((1R,4r)-4-(5-(2-(N-(tert-butyl)sulfamoyl)-4-(3-((R)-1-(pyridin-2-yl)ethyl)ureido)phenyl)thiazol-2-yl)cyclohexyl)carbamate]	–	–	11.5	15.7	1.4	–	–	–
CC(C)OC(=O)NC1CCC(c2ncc(-c3ccc(NC(=O)NCc4ncccc4F)cc3S(=O)(=O)NC(C)(C)C)s2)CC1 (stereo not drawn) [Ex. 31, isopropyl ((1r,4r)-4-(5-(2-(N-(tert-butyl)sulfamoyl)-4-(3-((3-fluoropyridin-2-yl)methyl)ureido)phenyl)thiazol-2-yl)cyclohexyl)carbamate]	–	–	12.8	13.6	1.1	77.3	2.77	1.49
CC(C)OC(=O)N[C@@H]1CCC(c2ncc(-c3ccc(NC(=O)NCc4ccccc4)cc3S(=O)(=O)NC(C)(C)C)s2)NC1 (stereo partly drawn) [Ex. 64]	–	–	2.2	27.4	12.5	–	–	–
CC(C)OC(=O)N[C@H]1CC[C@H](c2ncc(-c3ccc(NC(=O)NCc4ccccc4)cc3S(=O)(=O)NC(C)(C)C)s2)CC1 [Ex. 66A, trans-isopropyl N-[4-[5-[4-(benzylcarbamoylamino)-2-(tert-butylsulfamoyl)phenyl]thiazol-2-yl]cyclohexyl]carbamate]	–	–	–	–	–	49.6	3.31	2.55
